Test results as given in patent US12643891B2, “SPAK/OSR inhibitors and methods of using same” (YALE UNIVERSITY, priority 2019, dated 2026).

Assays:
GBM cell lines [1] = experiment: Glioblastoma cell proliferation / viability (MTT); format: cell-based, human; conditions: FIG. 30
Protocol: Glioblastoma cells were plated in triplicates in 96-well plates at a cell density of 10,000 cells per well and incubated with increasing concentrations of (7a) inhibitor for 72 hs. Cell viability was determined by Thiazolyl Blue Tetrazolium Bromide (MTT) assay (Sigma) according to manufacturer instructions. IC50 was determined using GraphPad software by non-linear regression analysis (log (inh) vs. normalized response).

PARP-1 = PARP-1 Western blot in GBM cells; format: cell-based, human; conditions: after 24 hs
Protocol: (§1) FIGS. 40A-40C depict that SPAK/OSR1 inhibition sensitizes GBM to radiation and decreases expression of DNA damage response genes. FIG. 40A: GBM cells were pre-treated for 24 hs with 1 μM (6a) or vehicle control and irradiated. After 72 hs, cells were re-plated to study clonogenicity. […] FIG. 40C: Expression of DNA damage response genes by RNAseq in cells treated with (6a) for 6 hs (dashed line delimits p<0.05).

[2] = Formulation/tolerance test, intracranial, healthy tumor free mice; format: in vivo; conditions: 100 μM in DMSO/PEG formulation, intracranially
Protocol: FIG. 41 depicts treating healthy, tumor free, mice (ms_#) intracranially with a DMSO/PEG formulation containing vehicle or 100 μM (6a).

GBM 612, GBM120 = experiment: Temozolomide IC50 in combination with (6a) in GBM cell lines; format: cell-based, human
Source text: FIG. 39 depicts that the IC50 values for temozolomide (TMZ) decrease 2-4 fold when used in combination (6a) in two different GBM cell lines (GBM 612, GBM120).

pancreatic cancer cells = experiment: Pancreatic cancer cell migration in vitro; format: cell-based; conditions: FIG. 36
primary GBM cells = experiment: Nanogrooved pattern glioblastoma cell migration assay; format: cell-based, human; conditions: in vitro
Protocol: Cell culture: All primary cell lines were derived from intraoperative tissue samples from patients treated surgically for newly diagnosed glioblastoma multiforme without prior treatment. Primary cells were cultured in Dulbecco's Modified Eagle Medium: Nutrient Mixture F-12, B27 serum free supplement (Gibco), 20 ng/mL epidermal growth factor (EGF), and 20 ng/ml fibroblast-derived growth factor (FGF).
Nanogrooved pattern cell migration assay: Migration of glioma cells was quantified using a novel directional migration assay using nano-ridges/grooves of 400 nm in groove width, 400 nm in ridge width, and 500 nm in depth, constructed of transparent poly(urethane acrylate) (PUA), and fabricated using UV-assisted capillary lithography (Kim & Eberwine, 2010, Anal. Bioanl. Chem. 397:3173-3178). Cells were cultured on glass covered with a nanogrooved pattern substratum, which was previously glued onto the bottom surface of the custom-made Mat-tek dish (P35G-20-C). […] Cell migration was quantified using time-lapse microscopy using a motorized inverted microscope (Olympus IX81) equipped with a Cascade 512B II CCD camera and temperature and gas controlling environmental chamber. Phase-contrast and epi-fluorescent cell images were automatically recorded under 4*1.6× objective using the Slidebook 4.1 (Intelligent Imaging Innovations, Denver, CO) for 10 hours at 10 minute intervals. […]

GBM cells [3] = experiment: Clonogenicity of GBM cells after (6a) pre-treatment and irradiation; format: cell-based, human; conditions: 24 hs pre-treatment 1 μM, irradiated; 15 days after treatment
Protocol: as §1

GBM cell lines [4] = experiment: Annexin V apoptosis assay in GBM cell lines; format: cell-based, human; conditions: 1 μM, four GBM cell lines
Protocol: FIG. 37 depicts annexin V assays performed on four GBM cell lines after 1 μM of (6a) or vehicle control.

[5] = test system: GMB intracranial xenograft; experiment: Human GBM intracranial xenograft mouse model; format: in vivo
Source text: FIGS. 32A-32B illustrate that (6a) reduces tumor growth in vivo in a human GMB intracranial xenograft mouse model. FIG. 32A: Schematic of the human GMB intracranial xenograft. FIG. 32B: Tumor growth profiles at two (6a) doses.

melanoma cells = experiment: Melanoma cell migration in vitro; format: cell-based; conditions: FIG. 35
GBM cells [6] = experiment: Cell cycle FACS analysis of GBM cell lines; format: cell-based, human; conditions: 2 μM
Protocol: FIG. 38A: Example cell cycle FACS data for 612 cells treated with 2 μM of (6a). FIG. 38B: Cell cycle analysis of GBM cell lines treated with 2 μM of (6a).

SPAK = target: T1, SPAK (Homo sapiens, UniProt Q9UEW8); experiment: In vitro SPAK ELISA assay monitoring NKCC1 phosphorylation (T^PNKCC1 antibody); format: biochemical; conditions: screening platform, FIG. 21; read-out: in vitro IC50
T1 construct: GST (N, cleaved yes); made in house; host or cells: E. coli EcAR7 with Sep-OTS

primary human astrocytes = experiment: Migration of primary human astrocytes; format: cell-based

SMILES: COc1ccc(Nc2ncc(C#N)c(Nc3ccccc3C(N)=O)n2)cc1N1CCN(C)CC1 [(6a), 2-((5-cyano-2-((4-methoxy-3-(4-methylpiperazin-1-yl)phenyl)amino)pyrimidin-4-yl)amino)benzamide]
- proliferation and viability of primary GBM cell lines (GBM cell lines [1]): impedes proliferation and viability
- full length PARP-1 level (PARP-1): decrease full length PARP-1
- tolerance [2]: well tolerated
- decrease of temozolomide (TMZ) IC50 in combination with (6a) (GBM 612, GBM120): 2-4 fold
- pancreatic cancer cell migration (pancreatic cancer cells): reduced
- migration of primary GBM cells (primary GBM cells): reduced migration of primary GBM cells
- clonogenic potential after irradiation (GBM cells [3]): lowest in the combination treatment
- apoptosis in GBM cell lines (GBM cell lines [4]): induces apoptosis
- overall survival [5]: extended overall survival
- tumor growth [5]: reduction in tumor growth
- tumor volume [5]: reduced tumor volume
- melanoma cell migration (melanoma cells): reduced melanoma cell migration
- cell cycle arrest in GBM cells (GBM cells [6]): induces G2-M arrest
- IC50 (SPAK): ~60 nM
- activity on primary human astrocytes (migration) (primary human astrocytes): not active
